In US20240246977A1, “DEGRADATION OF BRUTON'S TYROSINE KINASE (BTK) BY CONJUGATION OF BTK INHIBITORS WITH E3 LIGASE LIGAND AND METHOD OF USE” (BeiGene Switzerland GmbH, priority 2021, published 2024) one finds DC50 and IC50 data, which are given here for 13 compounds.

By DC50 is commonly meant the concentration at which degradation of the target reaches its halfway point. Read a low DC50 as a more potent degrader.

One experiment concerns the target BTK (Homo sapiens, UniProt Q06187). Kind of experiment: BTK cell degradation in TMD-8 cells, HTRF assay. It counts as cell-based. The arrangement: endogenous in cells; host or cells: TMD-8 cells. To be noted: 6 h treatment, IC50 (DC50) of BTK degradation. As to the method: TMD-8 cells were treated with compounds diluted in 0.2% DMSO, dilution was done according to the following protocol: (1) making 500× stock solution in DMSO from 1 mM by 6-fold dilution, total 8 doses were included; (2) making 2× solution in cell culture medium by transferring 0.5 μl 500× stock solution into 125 μl medium; (3) adding 15 μl of 2× solution to cells for incubation of 6 h.
After 6 h treatment, 10 μl 14×lysis buffer was added to each well; the plate was sealed and incubated for 30 min at room temperature on a plate shaker; Once the cells was lysed, 16 μL of cell lysate were transferred to a PE 384-well HTRF detection plate; 4 μL of pre-mixed HTRF antibodies were added to each well; the plate was covered with a plate sealer, and then spinned at 1000 rpm for 1 min, then incubated overnight at room temperature; the results were read on BMG PheraStar with HTRF protocol (337 nm-665 nm-620 nm).
The inhibition (degradation) percentage of the compound was calculated by the following equation: Inhibition percentage of Compound=100−100×(Signal-low control)/(High control-low control), wherein signal=each test compound group
High control=Cell group with added DMSO and without compound, indicating microplate readings without BTK degradation;
Dmax is the maximum percentage of inhibition (degradation).
The IC50 (DC50) value of a compound can be obtained by fitting the following equation
Y=Bottom+(TOP−Bottom)/(1+((IC50/X)^hillslope))
(§1) wherein, X and Y are known values, and IC50, Hillslope, Top and Bottom are the parameters obtained by fitting with software. Y is the inhibition percentage (calculated from the equation), X is the concentration of the compound; IC50 is the concentration of the compound when the 50% inhibition is reached. The smaller the IC50 value is, the stronger the inhibitory ability of the compound is. Vice versa, the higher the IC50 value is, the weaker the ability the inhibitory ability of the compound is; Hillslope represents the slope of the fitted curve, generally around 1*; Bottom represents the minimum value of the curve obtained by data fitting, which is generally 0%±20%; Top represents the maximum value of the curve obtained by data fitting, which is generally 100%±20%. The experimental data were fitted by calculating and analyzing with Dotmatics data analysis software.
In general terms: Time-resolved FRET reads energy transfer from a long-lived donor to a nearby acceptor.

A further experiment has as its system HEK-293 cells. Kind of experiment: HEK-293 cytotoxicity detection (CellTiter-Glo). It counts as cell-based. To be noted: 72 h incubation, CellTiter-Glo luminescence, read-out: HEK293. As to the method:
HEK-293 cells were treated with compounds diluted in 0.2% DMSO, dilution was done according to the following protocol: (1) making 500× stock solution in DMSO from 5 mM by 4-fold dilution, total 8 doses were included; (2) making 2× solution in cell culture medium by transferring 0.5 ul 500× stock solution into 125 ul medium; (3) adding 50 ul of 2× solution to cells for incubation of 72 h.
25 μl of the CellTiter-Glo®Reagent [(Promega)—Cat No. G7572] was added to each well in the 96-well plate. The contents were mixed for 2 minutes on an orbital shaker to induce cell lysis. The plate was then allowed to incubate at room temperature for 10 minutes to stabilize luminescent signal. Luminescence was recorded on BMG PheraStar with luminescence protocol.
The inhibition percentage of the compound was calculated by the following equation: Inhibition percentage of Compound=100−100×(Signal-low control)/(High control-low control), wherein signal=each test compound group
High control=Cell group with added DMSO and without compound, indicating cells proliferation with no inhibition;
Imax is the maximum percentage of inhibition.
The IC50 value of a compound can be obtained by fitting the following equation
as §1, with “Wherein,” for “wherein,”
For orientation: In ATP-based viability assays light output follows the ATP content of the culture.

Read-outs that look alike come from different tables or passages of the source.

Chain of BTK (Q06187 whole entry): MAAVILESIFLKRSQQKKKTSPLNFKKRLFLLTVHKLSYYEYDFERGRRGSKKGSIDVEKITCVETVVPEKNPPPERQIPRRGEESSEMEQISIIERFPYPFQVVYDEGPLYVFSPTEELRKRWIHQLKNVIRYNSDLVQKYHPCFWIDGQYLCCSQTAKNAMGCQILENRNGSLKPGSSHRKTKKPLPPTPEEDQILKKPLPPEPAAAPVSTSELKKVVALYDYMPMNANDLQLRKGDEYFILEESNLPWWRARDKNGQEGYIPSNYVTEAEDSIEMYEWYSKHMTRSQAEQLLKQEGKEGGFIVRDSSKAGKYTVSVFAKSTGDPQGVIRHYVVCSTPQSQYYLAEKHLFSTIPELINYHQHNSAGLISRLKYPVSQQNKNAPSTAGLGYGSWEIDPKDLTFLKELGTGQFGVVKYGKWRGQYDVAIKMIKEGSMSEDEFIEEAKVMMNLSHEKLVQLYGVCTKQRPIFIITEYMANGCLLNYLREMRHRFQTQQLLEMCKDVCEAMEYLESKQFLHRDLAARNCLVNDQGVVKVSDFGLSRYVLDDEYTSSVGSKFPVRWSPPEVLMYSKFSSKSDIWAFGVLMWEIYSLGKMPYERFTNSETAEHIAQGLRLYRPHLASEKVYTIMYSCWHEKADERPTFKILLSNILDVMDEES

Compound `Cc1cccc(NC(=O)c2ncc(-c3nn4c(c3C(N)=O)Nc3ccc(N5CCN(C6CC(c7ccc(C8CCC(=O)NC8=O)cc7)C6)CC5)cc3CC4)cc2C)n1` (stereo in doubt) [Example B35, (S)-7-(4-(3-(4-(2,6-dioxopiperidin-3-yl)phenyl)cyclobutyl)piperazin-1-yl)-2-(5-methyl-6-((6-methylpyridin-2-yl)carbamoyl)pyridin-3-yl)-9,10-dihydro-4H-benzo[d]pyrazolo[1,5-a][1,3]diazepine-3-carboxamide] registered a DC50 at BTK of 10.6 nM. For the same compound, the IC50 in the experiment on HEK-293 cells came to 97.4 nM.

At BTK, `NC(=O)c1c(-c2ccc(Oc3ccccc3)cc2)nn2c1Nc1ccc(NC(=O)C3CCN(c4ccc5c(c4)C(=O)N(C4CCC(=O)NC4=O)C5=O)CC3)cc1CC2` (stereo not shown) [Example A1, 7-(1-(2-(2,6-dioxopiperidin-3-yl)-1,3-dioxoisoindolin-5-yl)piperidine-4-carboxamido)-2-(4-phenoxyphenyl)-9,10-dihydro-4H-benzo[d]pyrazolo[1,5-a][1,3]diazepine-3-carboxamide] came in with a DC50 of 3 nM. Also, the IC50 with HEK-293 cells (Homo sapiens, 72 h) is 417 nM.

Regarding `NC(=O)c1c(-c2ccc(Oc3ccccc3)cc2)nn2c1Nc1ccc(NC(=O)COCCOCCOCCOCCNc3cccc4c3C(=O)N(C3CCC(=O)NC3=O)C4=O)cc1CC2` (stereo not shown) [Example A2, 7-(14-((2-(2,6-dioxopiperidin-3-yl)-1,3-dioxoisoindolin-4-yl)amino)-3,6,9,12-tetraoxatetradecanamido)-2-(4-phenoxyphenyl)-9,10-dihydro-4H-benzo[d]pyrazolo[1,5-a][1,3]diazepine-3-carboxamide], half-maximal degradation at BTK (DC50) was put at 1.85 nM. Besides, in the experiment on HEK-293 cells (Homo sapiens, 72 h), the IC50 came out at 557 nM.

With `NC(=O)c1c(-c2ccc(Oc3ccccc3)cc2)nn2c1Nc1cc(N3CCN(CC4CCN(c5ccc6c(c5)C(=O)N(C5CCC(=O)NC5=O)C6=O)CC4)CC3)ccc1CC2` (stereo not shown) [Example A15, 6-(4-((1-(2-(2,6-dioxopiperidin-3-yl)-1,3-dioxoisoindolin-5-yl)piperidin-4-yl)methyl)piperazin-1-yl)-2-(4-phenoxyphenyl)-9,10-dihydro-4H-benzo[d]pyrazolo[1,5-a][1,3]diazepine-3-carboxamide], half-maximal degradation at BTK (DC50) was put at 27.9 nM.

Compound `NC(=O)c1c(-c2ccc(Oc3ccccc3)cc2)nn2c1Nc1ccc(NCC3CCN(c4cc5c(cc4F)C(=O)N(C4CCC(=O)NC4=O)C5=O)CC3)cc1CC2` (stereo not shown) [Example A16, 7-(((1-(2-(2,6-dioxopiperidin-3-yl)-6-fluoro-1,3-dioxoisoindolin-5-yl)piperidin-4-yl)methyl)amino)-2-(4-phenoxyphenyl)-9,10-dihydro-4H-benzo[d]pyrazolo[1,5-a][1,3]diazepine-3-carboxamide] returned a DC50 on BTK of 9.71 nM.

For the compound `NC(=O)c1c(-c2ccc(Oc3ccccc3)cc2)nn2c1Nc1cc(C(=O)NC3CCN(CC4CCN(c5cc6c(cc5F)C(=O)N(C5CCC(=O)NC5=O)C6=O)CC4)CC3)ccc1CC2` (stereo not shown) [Example A17, N^6-(1-((1-(2-(2,6-dioxopiperidin-3-yl)-6-fluoro-1,3-dioxoisoindolin-5-yl)piperidin-4-yl)methyl)piperidin-4-yl)-2-(4-phenoxyphenyl)-9,10-dihydro-4H-benzo[d]pyrazolo[1,5-a][1,3]diazepine-3,6-dicarboxamide], the DC50 on BTK amounted to 14.4 nM.

`NC(=O)c1c(-c2ccc(Oc3ccccc3)cc2)nn2c1Nc1cc(C(=O)N3CCN(CC4CCN(c5ccc6c(c5)C(=O)N(C5CCC(=O)NC5=O)C6=O)CC4)CC3)ccc1CC2` (stereo not shown) [Example A19, 6-(4-((1-(2-(2,6-dioxopiperidin-3-yl)-1,3-dioxoisoindolin-5-yl)piperidin-4-yl)methyl)piperazine-1-carbonyl)-2-(4-phenoxyphenyl)-9,10-dihydro-4H-benzo[d]pyrazolo[1,5-a][1,3]diazepine-3-carboxamide] showed a DC50 at BTK of 17.9 nM.

`NC(=O)c1c(-c2ccc(Oc3ccccc3)cc2)nn2c1Nc1ccc(N3CCN(CCC4CCN(c5ccc(N6CCC(=O)NC6=O)cc5)CC4)CC3)cc1CC2` [Example A22, 7-(4-(2-(1-(4-(2,4-dioxotetrahydropyrimidin-1(2H)-yl)phenyl)piperidin-4-yl)ethyl)piperazin-1-yl)-2-(4-phenoxyphenyl)-9,10-dihydro-4H-benzo[d]pyrazolo[1,5-a][1,3]diazepine-3-carboxamide] came in with a DC50 at BTK of 1.31 nM.

`CC(C)(C)c1ccc(Oc2ccc(-c3nn4c(c3C(N)=O)Nc3ccc(C5CCN(CCC6CCN(c7ccc(N8CCC(=O)NC8=O)cc7)CC6)CC5)cc3CC4)cc2)cc1` [Example A29, 2-(4-(4-(tert-butyl)phenoxy)phenyl)-7-(1-(2-(1-(4-(2,4-dioxotetrahydropyrimidin-1(2H)-yl)phenyl)piperidin-4-yl)ethyl)piperidin-4-yl)-9,10-dihydro-4H-benzo[d]pyrazolo[1,5-a][1,3]diazepine-3-carboxamide]: the DC50 at BTK is 16.3 nM.

At BTK, `Cc1cccc(NC(=O)c2ccc(-c3nn4c(c3C(N)=O)Nc3ccc(N5CCN(CC6CCN(c7ccc(CN8CCC(=O)NC8=O)cc7)CC6)CC5)cc3CC4)c(F)c2C)n1` [Example B69, 7-(4-((1-(4-((2,4-dioxotetrahydropyrimidin-1(2H)-yl)methyl)phenyl)piperidin-4-yl)methyl)piperazin-1-yl)-2-(2-fluoro-3-methyl-4-((6-methylpyridin-2-yl)carbamoyl)phenyl)-9,10-dihydro-4H-benzo[d]pyrazolo[1,5-a][1,3]diazepine-3-carboxamide] displayed a DC50 of 8.05 nM.

In turn, `Cc1cccc(NC(=O)c2ccc(-c3nn4c(c3C(N)=O)Nc3ccc(N5CCN(CC6CCN(c7cccc(CN8CCC(=O)NC8=O)c7)CC6)CC5)cc3CC4)c(F)c2C)n1` [Example B70, 7-(4-((1-(3-((2,4-dioxotetrahydropyrimidin-1(2H)-yl)methyl)phenyl)piperidin-4-yl)methyl)piperazin-1-yl)-2-(2-fluoro-3-methyl-4-((6-methylpyridin-2-yl)carbamoyl)phenyl)-9,10-dihydro-4H-benzo[d]pyrazolo[1,5-a][1,3]diazepine-3-carboxamide] displayed a DC50 on BTK of 8.66 nM.

For the compound `Cc1c(C(=O)Nc2cn(C)cn2)ccc(-c2nn3c(c2C(N)=O)Nc2ccc(N4CCN(CCc5cc(F)c([C@H]6CCC(=O)NC6=O)c(F)c5)CC4)cc2CC3)c1F` [Example B89, (R)-7-(4-(4-(2,6-dioxopiperidin-3-yl)-3,5-difluorophenethyl)piperazin-1-yl)-2-(2-fluoro-3-methyl-4-((1-methyl-1H-imidazol-4-yl)carbamoyl)phenyl)-9,10-dihydro-4H-benzo[d]pyrazolo[1,5-a][1,3]diazepine-3-carboxamide], the IC50 in the experiment with HEK-293 cells (Homo sapiens, 72 h) is greater than 10000 nM.

For `Cc1c(C(=O)Nc2cscn2)ccc(-c2nn3c(c2C(N)=O)Nc2ccc(N4CCN(CCc5cc(F)c([C@H]6CCC(=O)NC6=O)c(F)c5)CC4)cc2CC3)c1F` [Example B95, (R)-7-(4-(4-(2,6-dioxopiperidin-3-yl)-3,5-difluorophenethyl)piperazin-1-yl)-2-(2-fluoro-3-methyl-4-(thiazol-4-ylcarbamoyl)phenyl)-9,10-dihydro-4H-benzo[d]pyrazolo[1,5-a] [1,3]diazepine-3-carboxamide], the DC50 at BTK worked out at 1.7 nM.
